Assay results taken from ChEMBL document CHEMBL2364262, “Structure-activity relationship data for chemical series of agonists of the motilin receptor (Supplementary Bioactivity Data for publication CHEMBL1141008)”.

target: Motilin receptor (Homo sapiens, UniProt O43193); test: SUPPLEMENTARY: Agonist activity at human recombinant motilin receptor expressed in CHO cells by calcium mobilization-based FLIPR assay. Same assay as CHEMBL942680; type: functional, cell-based
Sequence (O43193 whole entry): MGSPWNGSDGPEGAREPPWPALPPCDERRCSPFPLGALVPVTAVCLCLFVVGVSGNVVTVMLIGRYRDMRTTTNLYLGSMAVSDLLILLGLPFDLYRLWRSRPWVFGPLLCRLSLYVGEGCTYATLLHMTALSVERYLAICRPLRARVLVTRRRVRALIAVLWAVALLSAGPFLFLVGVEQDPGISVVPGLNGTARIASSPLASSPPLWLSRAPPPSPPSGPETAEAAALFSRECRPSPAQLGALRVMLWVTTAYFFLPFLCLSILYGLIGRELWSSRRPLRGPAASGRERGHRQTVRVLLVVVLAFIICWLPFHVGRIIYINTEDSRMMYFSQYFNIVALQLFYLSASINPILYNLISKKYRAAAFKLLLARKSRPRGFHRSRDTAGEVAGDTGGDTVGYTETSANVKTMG

| SMILES | EC50 |
| --- | --- |
| C[C@H]1CN(Cc2ccc(CC(=O)N3CCC(Nc4cccc(F)c4)CC3)cc2Cl)CCN1 | 5.01 nM |
| C[C@@H]1CN(Cc2ccn(-c3cccnc3N3CCC(Nc4ccc(F)cc4)CC3)n2)C[C@H](C)N1 | 2 nM |
| Cc1cc(N(C)C(=O)c2ccc(Oc3ccc(F)cc3)nc2)ccc1CN1CCN[C@@H](C)C1 | 0.251 nM |
| C[C@H]1CN(Cc2ccc(N(C)C(=O)c3ccc(Oc4ccc(F)cc4)nc3)nc2)CCN1 | 31.6 nM |
| C[C@H]1CN(Cc2ccc(N(C)C(=O)c3ccc(Oc4cccc(F)c4)cc3)cc2)CCN1 | 2.51 nM |
| C[C@H]1CN(Cc2ccc(N(C)C(=O)c3ccc(-c4ccc(F)cc4)nc3)cc2)CCN1 | 1.58 nM |
| C[C@@H]1CN(Cc2ccc(-c3cccnc3S(=O)(=O)N3CCC(Nc4ccccc4F)CC3)cc2F)C[C@H](C)N1 | 20 nM |
| C[C@H]1CN(Cc2ccc(N(C)C(=O)c3ccc(-c4ccccc4F)nc3)cc2)CCN1 | 5.01 nM |
| C[C@H]1CN(Cc2ccc(N(C)C(=O)c3ccc(C(=O)c4ccc(C(F)(F)F)cc4)cc3)cc2)CCN1 | 20 nM |
| C[C@H]1CN(Cc2ccc(N(C)C(=O)c3ccc(Oc4ccccc4F)cc3)cc2)CCN1 | 5.01 nM |
| Cc1cc(N(C)C(=O)c2ccc(Oc3ccc(F)cc3)nc2)ncc1CN1CCN[C@@H](C)C1 | 2 nM |
| C[C@H]1CN(Cc2ccc(N(C)C(=O)c3ccc(-c4cccc(F)c4)cn3)cc2)CCN1 | 7.94 nM |
| C[C@H]1CN(Cc2ccc(CC(=O)N3CCC(Nc4ccc(C#N)cc4)CC3)cc2)CCN1 | 31.6 nM |
| C[C@@H]1CN(Cc2ccc(CC(=O)N3CCC(Oc4ccc(F)cc4)CC3)cc2)CCN1 | 12.6 nM |
| Cc1nc(-c2ccc(F)cc2)ncc1C(=O)N(C)c1ccc(CN2CCN[C@@H](C)C2)cc1 | 1.58 nM |
| C[C@@H]1CN(Cc2ccc(CC(=O)N3CCC(Nc4cccc(C(F)(F)F)c4)CC3)cc2)CCN1 | 2.51 nM |
| C[C@H]1CN(Cc2ccc(N(C)C(=O)C3CCN(Cc4cccc(F)c4)CC3)cc2)CCN1 | 5.01 nM |
| COc1cccc(-c2ccc(C(=O)N(C)c3ccc(CN4CCN[C@@H](C)C4)cc3)nc2)c1 | 7.94 nM |
| C[C@@H]1CN(Cc2ccc(C(C)(C)C(=O)N3CCC(Nc4cccc(F)c4)CC3)cc2)C[C@H](C)N1 | 25.1 nM |
| C[C@H]1CN(Cc2ccc(N(C)C(=O)c3ccc(Oc4cccc(F)c4)cn3)cc2)CCN1 | 1 nM |
| C[C@@H]1CN(Cc2ccc(NS(=O)(=O)c3ccc(-c4ccc(F)cc4)nc3)cc2)C[C@H](C)N1 | 158 nM |
| C[C@H]1CN(Cc2ccc(N(C)C(=O)c3ccc(-c4cccc(F)c4)nc3)cc2)CCN1 | 1.26 nM |
| C[C@@H]1CN(Cc2ccc(N(C)C(=O)c3ccc(-c4ccc(F)cc4)nc3)cc2)C[C@H](C)N1 | 2 nM |
| C[C@H]1CN(Cc2ccc(N(C)C(=O)c3ccc(-c4cccc(F)c4)nc3)c(F)c2)CCN1 | 6.31 nM |

| SMILES | EC50 |
| --- | --- |
| C[C@@H]1CN(Cc2ccc(CC(=O)N3CCC(Oc4cccc(F)c4)CC3)cc2)CCN1 | 15.8 nM |
| C[C@H]1CN(Cc2ccc(NS(=O)(=O)c3ccc(-c4ccc(F)cc4)nc3)cc2C(F)(F)F)CCN1 | 1.58 nM |
| C[C@@H]1CN(Cc2ccc(CCC(=O)N3CCC(Nc4cccc(F)c4)CC3)cc2)C[C@H](C)N1 | 39.8 nM |
| C[C@@H]1CN(Cc2ccc(CC(=O)N3CCC(Nc4cccc(C#N)c4)CC3)cc2)CCN1 | 3.16 nM |
| C[C@H]1CN(Cc2ccc(N(C)C(=O)c3ccc(Oc4ccccc4F)nc3)cc2)CCN1 | 7.94 nM |
| C[C@@H]1CN(Cc2ccn(-c3cccnc3N3CCC(Oc4ccc(F)cc4)CC3)n2)C[C@H](C)N1 | 1.26 nM |
| C[C@H]1CN(Cc2ccc(N(C)C(=O)c3ccc(-c4cccc(C#N)c4)nc3)cc2)CCN1 | 7.94 nM |
| CCN(C(=O)c1ccc(-c2cccc(F)c2)nc1)c1ccc(CN2CCN[C@@H](C)C2)cc1 | 0.794 nM |
| C[C@H]1CN(Cc2ccc(CC(=O)N3CCC(Oc4ccc(F)cc4)CC3)cc2)CCN1 | 20 nM |
| C[C@H]1CN(Cc2ccc(N(C)C(=O)C3CCN(Cc4ccc(C#N)cc4)CC3)cc2)CCN1 | 63.1 nM |
| C[C@H]1CN(Cc2ccc(N(C)C(=O)c3ccc(-c4cccc(F)c4)nc3)cc2F)CCN1 | 1.26 nM |
| C[C@H]1CN(Cc2ccc(N(C)C(=O)c3ccc(-c4ccc(F)cc4)cn3)cc2)CCN1 | 7.94 nM |
| C[C@@H]1CN(Cc2ccc(CC(=O)N3CCC(Oc4ccc(C#N)cc4)CC3)cc2)CCN1 | 12.6 nM |
| Cc1nc(-c2cccc(F)c2)ccc1C(=O)N(C)c1ccc(CN2CCN[C@@H](C)C2)cc1 | 0.631 nM |
| COCCN(C(=O)c1ccc(-c2cccc(F)c2)nc1)c1ccc(CN2CCN[C@@H](C)C2)cc1 | 15.8 nM |
| Cc1nc(-c2ccc(F)cc2)ccc1C(=O)N(C)c1ccc(CN2C[C@@H](C)N[C@@H](C)C2)cc1 | 0.398 nM |
| C[C@H]1CN(Cc2ccn(-c3cccnc3N3CCC(Oc4cccc(F)c4)CC3)n2)CCN1 | 0.794 nM |
| CC(C)N(C(=O)c1ccc(-c2cccc(F)c2)nc1)c1ccc(CN2CCN[C@@H](C)C2)cc1 | 12.6 nM |
| Cc1cc(N(C)C(=O)c2ccc(-c3cccc(F)c3)nc2)ccc1CN1CCN[C@@H](C)C1 | 0.251 nM |
| COCCN(C(=O)c1ccc(Oc2ccc(F)cc2)nc1)c1ccc(CN2CCN[C@@H](C)C2)cc1 | 15.8 nM |
| C[C@H]1CN(Cc2ccc(CC(=O)N3CCC(Nc4cccc(C(F)(F)F)c4)CC3)cc2)CCN1 | 6.31 nM |
| C[C@H]1CN(Cc2ccc(N(C)C(=O)c3ccc(Oc4cccc(C#N)c4)cn3)cc2)CCN1 | 2 nM |
| C[C@@H]1CN(Cc2ccc(CC(=O)N3CCC(Nc4ccc(C#N)cc4)CC3)cc2)CCN1 | 15.8 nM |
| C[C@H]1CN(Cc2ccc(CC(=O)N3CCC(Nc4ccc(F)c(F)c4)CC3)cc2)CCN1 | 7.94 nM |

| SMILES | EC50 |
| --- | --- |
| C[C@@H]1CN(Cc2ccn(-c3cccnc3N3CCC(Oc4cccc(F)c4)CC3)n2)C[C@H](C)N1 | 2.51 nM |
| C[C@@H]1CN(Cc2ccc(CC(=O)N3CCC(Nc4ccc(F)c(F)c4)CC3)cc2)CCN1 | 12.6 nM |
| CC(C(=O)N1CCC(Nc2cccc(F)c2)CC1)c1ccc(CN2C[C@@H](C)N[C@@H](C)C2)cc1 (stereo partly specified) | 15.8 nM |
| Cc1nc(-c2cccc(C#N)c2)ccc1C(=O)N(C)c1ccc(CN2CCN[C@@H](C)C2)cc1 | 1.58 nM |
| C[C@H]1CN(Cc2ccc(N(C)C(=O)c3ccc(-c4cccc(C#N)c4)cn3)cc2)CCN1 | 39.8 nM |
| Cc1cc(NS(=O)(=O)c2cncc(-c3ccc(F)cc3)c2)ccc1CN1CCN[C@@H](C)C1 | 20 nM |
| C[C@H]1CN(Cc2ccc(-c3cccnc3C(=O)N3CCC(Nc4ccc(F)cc4)CC3)cc2)CCN1 | 1 nM |
| C[C@H]1CN(Cc2ccc(N(C)C(=O)c3ccc(N4CCC(F)CC4)nc3)cc2)CCN1 | 79.4 nM |
| Cc1cc(NS(=O)(=O)c2ccc(-c3ccc(F)cc3)nc2)ccc1CN1CCN[C@@H](C)C1 | 1.58 nM |
| C[C@H]1CN(Cc2ccc(N(C)C(=O)c3cnc(-c4ccc(F)cc4)nc3)cc2)CCN1 | 5.01 nM |
| C[C@H]1CN(Cc2ccc(CC(=O)N3CCC(Oc4cccc(F)c4)CC3)cc2)CCN1 | 25.1 nM |
| C[C@H]1CN(Cc2ccc(N(C)C(=O)C3CCN(Cc4ccc(F)cc4)CC3)cc2)CCN1 | 7.94 nM |
| C[C@H]1CN(Cc2ccc(N(C)C(=O)C3CCN(Cc4cccc(C#N)c4)CC3)cc2)CCN1 | 39.8 nM |
| C[C@H]1CN(Cc2ccc(N(C)C(=O)c3ccc(-c4ccc(F)cc4)cc3)cc2)CCN1 | 39.8 nM |
| C[C@@H]1CN(Cc2ccc(-c3cccnc3N3CCC(Nc4ccc(F)cc4)CC3)s2)C[C@H](C)N1 | 25.1 nM |
| COc1cc(CC(=O)N2CCC(Nc3cccc(F)c3)CC2)ccc1CN1CCN[C@@H](C)C1 | 25.1 nM |
| C[C@@H]1CN(Cc2ccn(-c3cccnc3N3CCC(Oc4ccccc4F)CC3)n2)C[C@H](C)N1 | 6.31 nM |
| C[C@H]1CN(Cc2ccc(N(C)C(=O)c3ccc(Oc4ccc(F)cc4)nc3)cc2Cl)CCN1 | 0.316 nM |
| C[C@H]1CN(Cc2ccc(N(C)C(=O)c3ccc(Oc4ccc(F)cc4)nc3)c(F)c2)CCN1 | 3.16 nM |
| C[C@H]1CN(Cc2ccc(N(C)C(=O)c3ccc(Oc4cccc(C#N)c4)nc3)cc2)CCN1 | 3.16 nM |
| CCN(C(=O)c1ccc(Oc2ccc(F)cc2)nc1)c1ccc(CN2CCN[C@@H](C)C2)cc1 | 0.398 nM |
| C[C@H]1CN(Cc2ccc(NS(=O)(=O)c3ccc(N4CCCCC4)nc3)cc2)CCN1 | 100 nM |
| C[C@H]1CN(Cc2ccc(CC(=O)N3CCC(Nc4ccc(C(F)(F)F)cc4)CC3)cc2)CCN1 | 10 nM |
